Test results published in patent publication US8916551B2, “Heterocyclic compound and use thereof” (Takeda Pharmaceutical Company Limited, priority 2010, dated 2014).
Structures can show the parent of a compound that is named as a salt.

Molecular target: T1, AMPA receptor (human GluR1 flip/stargazin expressed in CHO-K1 cells) (Homo sapiens, UniProt P42261)
T1 construct: expressed in transfected cells; host or cells: CHO-K1
Assay: AMPA receptor function enhancing activity using calcium influx as index
Format: cell-based
Conditions: 100% = 3 mM glutamic acid + 300 μM cyclothiazide, 0% = 3 mM glutamic acid only
Text: Human GluR1 flip cDNA was amplified by PCR using forward primer […] (SEQ ID NO: 1) and reverse primer […] (SEQ ID NO: 2) artificially synthesized using human brain-derived cDNA (BD Bio science) as a template. The amplified product was digested with restriction enzymes EcoRI, NotI (TAKARA SHUZO CO. LTD.), and incorporated into the same site of pcDNA3.1(+) (Invitrogen) to construct pcDNA3.1(+)/human GluR1 flip gene. Human stargazin cDNA was amplified by PCR using forward primer […] (SEQ ID NO: 3) and reverse primer […] (SEQ ID NO: 4) artificially synthesized using human hippocampus cDNA as a template. The amplified product was digested with restriction enzymes XhoI, BamHI (TAKARA SHUZO CO. LTD.), and incorporated into the same site of pcDNA3.1(−) (Invitrogen) to construct pcDNA3.1 Zeo(−)/human stargazin gene.
CHO-K1 cells passaged in a culture medium (Ham's F12 medium (Invitrogen) added with 10% inactivated fetal bovine serum (Morgate) and penicillin, streptomycin (Invitrogen)) were detached with 0.05% trypsin, 0.53 mM EDTA (Invitrogen) diluted with D-PBS(−). The detached cells were suspended in a culture medium, and recovered by a centrifugation operation at 1,000 rpm. The recovered cells were suspended again in D-PBS(−), and added to a 0.4 cm electroporation cuvette (BioRad). pcDNA3.1(+)/human GluR1 flip gene (5 μg) and pcDNA3.1 Zeo(−)/human stargazin gene (15 μg) were added, and the mixture was introduced into CHO-K1 cells using Gene Pulser II (BioRad) under the conditions of 950 μFd, […]. The introduced cells were cultured overnight in a culture medium and, the next day, plated in a 96 well plate at 250 cells/well using a selection medium (culture medium added with Zeocin (Invitrogen) to 250 μg/mL). Clones showing drug resistance were selected, and GluR1 flip/stargazin expressing clones were selected by an assay method using calcium influx as an index as shown below.
CHO-K1/GluR1 flip/stargazin expressing cells were plated on a 96 well black transparent bottom plate (Costar) at 2×10^4 cells/well, and cultured in a 37° C., CO2 incubator (SANYO Electric Co., Ltd.) for 2 days. The medium in the cell plate was removed, and assay buffer A (D-MEM (Invitrogen), 0.1% BSA (Serogical Protein), 20 mM HEPES (Invitrogen)) was added at 50 μL/well. A calcium indicator (Calcium 4 Assay Kit, Invitrogen) added with 2.5 mM probenecid (Invitrogen) was added at 50 μL/well and the well was left standing in 37° C., CO2 incubator for 1 hr. The cell plate was set in CellLux (PerkinElmer), a mixture (50 μL) of 9 mM glutamic acid diluted with assay buffer B (HBSS (Invitrogen), 0.1% BSA, 20 mM HEPES) (final concentration 3 mM) and a test compound (test compound concentration 30 μM) was added, and the amount of change in fluorescence level in 3 min was measured. In the definition here, the amount of change in fluorescence level of well added with glutamic acid at final concentration 3 mM and 300 μM cyclothiazide (TOCRIS) is 100%, the amount of change in fluorescence level of well added only with glutamic acid at final concentration 3 mM is 0%, and the compound activity was calculated according to the following formula. activity(%)=(X−C)/(T−C)×100 T: amount of change in fluorescence level of well added with glutamic acid at final concentration 3 mM and 300 μM cyclothiazide C: amount of change in fluorescence level of well added only with glutamic acid at final concentration 3 mM X: amount of change in fluorescence level of well added with test compound

[1] = test compound 30 μM with glutamic acid final 3 mM, change in fluorescence in 3 min
[2] = test compound 30 μM with 3 mM glutamic acid, change in fluorescence level in 3 min

T1 sequence (P42261 19-906 isoform P42261-2 limits assumed): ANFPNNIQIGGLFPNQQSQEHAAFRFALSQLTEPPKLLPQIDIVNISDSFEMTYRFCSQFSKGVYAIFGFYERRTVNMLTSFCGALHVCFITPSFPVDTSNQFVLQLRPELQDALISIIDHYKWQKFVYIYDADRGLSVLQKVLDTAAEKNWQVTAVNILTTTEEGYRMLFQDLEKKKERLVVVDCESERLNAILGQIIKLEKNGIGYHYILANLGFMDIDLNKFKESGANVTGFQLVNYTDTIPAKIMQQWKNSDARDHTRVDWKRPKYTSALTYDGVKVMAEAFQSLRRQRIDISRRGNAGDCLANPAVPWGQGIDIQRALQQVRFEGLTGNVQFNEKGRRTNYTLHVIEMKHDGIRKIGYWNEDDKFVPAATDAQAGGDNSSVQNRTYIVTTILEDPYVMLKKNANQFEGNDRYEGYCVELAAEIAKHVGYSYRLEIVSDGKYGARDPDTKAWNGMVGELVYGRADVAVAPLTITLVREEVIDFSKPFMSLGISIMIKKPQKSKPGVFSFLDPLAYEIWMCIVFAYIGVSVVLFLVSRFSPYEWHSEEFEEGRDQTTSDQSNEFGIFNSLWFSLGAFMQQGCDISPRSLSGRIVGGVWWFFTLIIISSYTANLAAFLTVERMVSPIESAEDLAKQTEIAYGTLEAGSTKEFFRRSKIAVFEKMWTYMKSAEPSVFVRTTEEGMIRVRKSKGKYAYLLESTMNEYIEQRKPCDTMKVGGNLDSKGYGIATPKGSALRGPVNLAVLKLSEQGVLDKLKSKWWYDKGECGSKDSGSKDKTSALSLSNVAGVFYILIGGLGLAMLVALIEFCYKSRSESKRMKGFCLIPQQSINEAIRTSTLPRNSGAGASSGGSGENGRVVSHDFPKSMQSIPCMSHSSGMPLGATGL
T1 sequence (Q9Y698 whole entry partner): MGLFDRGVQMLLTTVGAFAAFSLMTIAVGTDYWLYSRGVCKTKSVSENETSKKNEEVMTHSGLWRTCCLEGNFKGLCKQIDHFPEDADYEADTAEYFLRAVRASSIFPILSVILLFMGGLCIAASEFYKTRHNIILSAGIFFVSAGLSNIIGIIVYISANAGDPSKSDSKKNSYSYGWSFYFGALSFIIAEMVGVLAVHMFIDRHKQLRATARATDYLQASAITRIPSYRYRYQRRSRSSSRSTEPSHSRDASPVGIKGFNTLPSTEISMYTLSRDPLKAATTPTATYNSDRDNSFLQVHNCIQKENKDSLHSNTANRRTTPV

SMILES	activity (%) [1] [%]	activity (%) [2] [%]
Cc1ccccc1Oc1ccc(C2CCCN3CCS(=O)(=O)N=C23)cc1 (stereo not drawn) [Example 116, 9-[4-(2-methylphenoxy)phenyl]-3,4,6,7,8,9-hexahydropyrido[2,1-c][1,2,4]thiadiazine 2,2-dioxide]	69	
O=S1(=O)CCN2CCCC(c3ccc(Oc4ccc(Br)c(C(F)(F)F)c4)cc3)C2=N1 (stereo not drawn) [Example 142, 9-{4-[4-bromo-3-(trifluoromethyl)phenoxy]phenyl}-3,4,6,7,8,9-hexahydropyrido[2,1-c][1,2,4]thiadiazine 2,2-dioxide]		70
O=S1(=O)CCN2C=CC=C(c3ccc(Oc4cccc(Cl)c4)cc3)C2=N1 [Example 85, 9-[4-(3-chlorophenoxy)phenyl]-3,4-dihydropyrido[2,1-c][1,2,4]thiadiazine 2,2-dioxide]	84	
CC(C)c1ccc(/C=C/C2=CC=CN3CCS(=O)(=O)N=C23)cc1 [Example 51, 9-{(E)-2-[4-(1-methylethyl)phenyl]ethenyl}-3,4-dihydropyrido[2,1-c][1,2,4]thiadiazine 2,2-dioxide]	87	
Cc1ccc(Oc2ccc(C3CCCN4CCS(=O)(=O)N=C34)cc2)cc1 (stereo not drawn) [Example 109, 9-[4-(4-methylphenoxy)phenyl]-3,4,6,7,8,9-hexahydropyrido[2,1-c][1,2,4]thiadiazine 2,2-dioxide]	88	
O=S1(=O)CCN2CCC[C@@H](c3ccc(Oc4cc(C(F)(F)F)ccc4Cl)cc3)C2=N1 [Example 160, (9S)-9-{4-[2-chloro-5-(trifluoromethyl)phenoxy]phenyl}-3,4,6,7,8,9-hexahydropyrido[2,1-c][1,2,4]thiadiazine 2,2-dioxide]		78
O=S1(=O)CCN2CCCC(c3ccc(OCc4cccc(F)c4)cc3)C2=N1 (stereo not drawn) [Example 83, 9-{4-[(3-fluorobenzyl)oxy]phenyl}-3,4,6,7,8,9-hexahydropyrido[2,1-c][1,2,4]thiadiazine 2,2-dioxide]	57	
CC(F)(F)c1ccc(C2CCCN3CCS(=O)(=O)N=C23)cc1 (stereo not drawn) [Example 174, 9-[4-(1,1-difluoroethyl)phenyl]-3,4,6,7,8,9-hexahydropyrido[2,1-c][1,2,4]thiadiazine 2,2-dioxide]		79
CC(F)(F)c1cccc(Oc2ccc(C3CCCN4CCS(=O)(=O)N=C34)cc2)c1 (stereo not drawn) [Example 159, 9-{4-[3-(1,1-difluoroethyl)phenoxy]phenyl}-3,4,6,7,8,9-hexahydropyrido[2,1-c][1,2,4]thiadiazine 2,2-dioxide]		90
CC1CC(c2ccc(Oc3cccc(C(C)(F)F)c3)cc2)C2=NS(=O)(=O)CCN2C1 (racemic) [Example 173, 9-{4-[3-(1,1-difluoroethyl)phenoxy]phenyl}-7-methyl-3,4,6,7,8,9-hexahydropyrido[2,1-c][1,2,4]thiadiazine 2,2-dioxide]		68
O=S1(=O)CCN2CCCC(c3ccc(-n4nc(C(F)(F)F)cc4C4CC4)cc3)C2=N1 (stereo not drawn) [Example 301, 9-{4-[5-cyclopropyl-3-(trifluoromethyl)-1H-pyrazol-1-yl]phenyl}-3,4,6,7,8,9-hexahydropyrido[2,1-c][1,2,4]thiadiazine 2,2-dioxide]	76	
O=S1(=O)CCN2CCCC(c3ccc(C(F)(F)F)cc3)C2=N1 (stereo not drawn) [Example 177, 9-[4-(trifluoromethyl)phenyl]-3,4,6,7,8,9-hexahydropyrido[2,1-c][1,2,4]thiadiazine 2,2-dioxide]		69
Cc1cc(C(F)(F)F)ccc1Oc1ccc(C2CCCN3CCS(=O)(=O)N=C23)cc1 (stereo not drawn) [Example 122, 9-{4-[2-methyl-4-(trifluoromethyl)phenoxy]phenyl}-3,4,6,7,8,9-hexahydropyrido[2,1-c][1,2,4]thiadiazine 2,2-dioxide]	58	
[2H]C1(c2ccc(-c3ccccc3)c(F)c2)NCCN2CCS(=O)(=O)N=C21 (stereo not drawn) [Example 348, 9-(2-fluorobiphenyl-4-yl)(9-^2H)-3,4,6,7,8,9-hexahydropyrazino[2,1-c][1,2,4]thiadiazine 2,2-dioxide Hydrochloride]	64	
CCCCn1ccc2cc(C3CCCN4CCS(=O)(=O)N=C34)ccc21 (stereo not drawn) [Example 294, 9-(1-butyl-1H-indol-5-yl)-3,4,6,7,8,9-hexahydropyrido[2,1-c][1,2,4]thiadiazine 2,2-dioxide]	82	
O=S1(=O)CCN2CCCC(c3ccc(-n4cccn4)cc3)C2=N1 (stereo not drawn) [Example 290, 9-[4-(1H-pyrazol-1-yl)phenyl]-3,4,6,7,8,9-hexahydropyrido[2,1-c][1,2,4]thiadiazine 2,2-dioxide]		79
O=S1(=O)CCN2CCCC(c3ccc(Oc4ccc(F)cc4)cc3)C2=N1 (stereo not drawn) [Example 357, 9-[4-(4-fluorophenoxy)phenyl]-3,4,6,7,8,9-hexahydropyrido[2,1-c][1,2,4]thiadiazine 2,2-dioxide]	77	

Second part, the molecule after the results:

activity (%) [1] [%]	activity (%) [2] [%]	SMILES
	79	O=S1(=O)CCN2C=CC=C(c3ccc(Oc4ccccc4)cn3)C2=N1 [Example 258, 9-(5-phenoxypyridin-2-yl)-3,4-dihydropyrido[2,1-c][1,2,4]thiadiazine 2,2-dioxide]
	36	O=S1(=O)CCN2C=CC=C(C3CCC(c4ccccc4)CC3)C2=N1 (stereo not drawn) [Example 185, 9-(4-phenylcyclohexyl)-3,4-dihydropyrido[2,1-c][1,2,4]thiadiazine 2,2-dioxide]
	90	O=S1(=O)CCN2C=CC=C(c3ccc(Oc4cncc(C(F)(F)F)c4)cc3)C2=N1 [Example 259, 9-(4-{[5-(trifluoromethyl)pyridin-3-yl]oxy}phenyl)-3,4-dihydropyrido[2,1-c][1,2,4]thiadiazine 2,2-dioxide]
85		CC(C)Oc1ccc(C2=CC=CN3CCS(=O)(=O)N=C23)cc1F [Example 361, 9-[3-fluoro-4-(1-methylethoxy)phenyl]-3,4-dihydropyrido[2,1-c][1,2,4]thiadiazine 2,2-dioxide]
82		O=S1(=O)CCN2C=CC=C(c3ccc(C4(F)COC4)cc3)C2=N1 [Example 396, 9-[4-(3-fluorooxetan-3-yl)phenyl]-3,4-dihydropyrido[2,1-c][1,2,4]thiadiazine 2,2-dioxide]
71		O=S1(=O)CCN2C=CN=C(c3ccc(OC4CCCCC4)nc3)C2=N1 [Example 94, 9-[6-(cyclohexyloxy)pyridin-3-yl]-3,4-dihydropyrazino[2,1-c][1,2,4]thiadiazine 2,2-dioxide]
	85	O=C1CCCCC1Oc1ccc(C2=CC=CN3CCS(=O)(=O)N=C23)cc1 (stereo not drawn) [Example 274, 2-[4-(2,2-dioxido-3,4-dihydropyrido[2,1-c][1,2,4]thiadiazin-9-yl)phenoxy]cyclohexanone]
85		O=C(Nc1ccc(C2CC2)cc1)C1=CC=CN2CCS(=O)(=O)N=C12 [Example 4, N-(4-cyclopropylphenyl)-3,4-dihydropyrido[2,1-c][1,2,4]thiadiazine-9-carboxamide 2,2-dioxide]
83		CCCOc1ccc(C2=CC=CN3CCS(=O)(=O)N=C23)cc1F [Example 349, 9-(3-fluoro-4-propoxyphenyl)-3,4-dihydropyrido[2,1-c][1,2,4]thiadiazine 2,2-dioxide]
	66	O=S1(=O)CCN2C=CC=C(Oc3ccc4c(c3)CCCC4)C2=N1 [Example 237, 9-(5,6,7,8-tetrahydronaphthalen-2-yloxy)-3,4-dihydropyrido[2,1-c][1,2,4]thiadiazine 2,2-dioxide]
